Experimental data: article PMC11648822, “Lactam Truncation Yields a Dihydroquinazolinone Scaffold with Potent Antimalarial Activity that Targets PfATP4” (Chemmedchem, 2024)
Values after ≈ are worked out from the molar mass of the structure shown. Marks after values point to notes of the source that are not given here.

Experiments:
[1] = test system: P. falciparum (Pf) 3D7 parasites; assay: P. falciparum LDH viability assay; type: cell-based; conditions: Plasmodium falciparum, 3D7, 72 h, LDH activity at 72 h; mean and SD of 3 independent experiments
Excerpt: This assay is a platform assay conducted at the Walter and Eliza Hall Institute and uses a protocol previously decsribed.[30, 31]

eLogD shake-flask method = type: physicochemical
Excerpt: (§1) Human liver microsome stability, rat hepatocyte stability, aqueous solubility and eLogD are platform assays conducted by TCG Lifesciences and undertaken using previously described protocols.[10]

Rat hepatocyte stability = type: in vitro ADME; conditions: rat hepatocytes; for hepatocyte CLint: read-out: Rat Hep CLint
Excerpt: as §1

[2] = Human HepG2 cytotoxicity assay (Cell Titre Glo); type: cell-based; conditions: HepG2 cells, growth inhibition at 48 h, 4 replicate experiments, read-out: HepG2 CC50 (SD)
Excerpt: This assay uses Cell TitreGlo as a metabolic maker for human HepG2 cell growth and uses a protocol previously described.[32]

[3] = Aqueous solubility (pH 7.4); type: physicochemical
Excerpt: as §1

[4] = Human liver microsome stability; type: in vitro ADME; conditions: human liver microsomes; for microsomal CLint: read-out: HLM CLint
Excerpt: as §1

[5] = aqueous medium (pH 7.4; buffer not named), pH 7.4, aqueous buffer
[6] = aqueous medium at pH 7.4, pH 7.4, aqueous buffer
[7] = aqueous medium at pH 7.4 (buffer not named), pH 7.4, aqueous buffer

Compound	EC50 [1] [nM]	eLogD (eLogD shake-flask method)	hepatocyte CLint (Rat hepatocyte stability) [µL/min/1e6 cells]	microsomal CLint [4] [µL/min/mg]	CC50 at 48 h [2] [nM]	also measured
7‐Chloro‐N‐(5‐chloropyridin‐3‐yl)‐3‐methyl‐2‐(3‐morpholino‐3‐oxopropyl)‐4‐oxo‐1,2,3,4‐tetrahydroquinazoline‐2‐carboxamide [Compound 21]	–	–	–	–	–	Rat Hep CLint (Rat hepatocyte stability): 23 μL/min/10^6 cells; solubility ([3]; pH 7.4): 41 µM; HLM CLint [4]: 95 µL/min/mg
CN1C(=O)c2ccc(-c3cnn(C)c3)cc2NC1(C)C(=O)Nc1cncc(Cl)c1 (centres unmarked) [Compound 32, N‐(5‐Chloropyridin‐3‐yl)‐2,3‐dimethyl‐7‐(1‐methyl‐1H‐pyrazol‐4‐yl)‐4‐oxo‐1,2,3,4‐tetrahydroquinazoline‐2‐carboxamide]	198	2.9^[d]	5	34	> 40000	solubility [3, 6]: 7 µM (≈ 2.88 µg/mL)
CN1C(=O)c2ccc(Cl)cc2N(C)C1(C)C(=O)Nc1cccc(Cl)c1 (centres unmarked) [Compound 12, 7‐Chloro‐N‐(3‐chlorophenyl)‐1,2,3‐trimethyl‐4‐oxo‐1,2,3,4‐tetrahydroquinazoline‐2‐carboxamide]	115	3.9^[d]	124	122	> 40000	solubility [3, 5]: 2.6 µM (≈ 0.983 µg/mL); solubility [3, 7]: < 5.2 µM
COc1ccc(-c2ccc3c(c2)NC(C)(C(=O)Nc2cncc(Cl)c2)N(C)C3=O)cn1 (centres unmarked) [Compound 30, N‐(5‐Chloropyridin‐3‐yl)‐7‐(6‐methoxypyridin‐3‐yl)‐2,3‐dimethyl‐4‐oxo‐1,2,3,4‐tetrahydroquinazoline‐2‐carboxamide]	143	–	–	–	> 40000	–
7‐Chloro‐N‐(5‐chloropyridin‐3‐yl)‐3‐methyl‐2‐(3‐(4‐methylpiperazin‐1‐yl)‐3‐oxopropyl)‐4‐oxo‐1,2,3,4‐tetrahydroquinazoline‐2‐carboxamide [Compound 23]	–	2.8^[d]	–	–	–	Rat Hep CLint (Rat hepatocyte stability): 16 μL/min/10^6 cells; solubility ([3]; pH 7.4): 9.6 µM; HLM CLint [4]: 155 µL/min/mg
7‐Chloro‐N‐(5‐chloropyridin‐3‐yl)‐3‐methyl‐4‐oxo‐2‐(3‐oxo‐3‐(piperazin‐1‐yl)propyl)‐1,2,3,4‐tetrahydroquinazoline‐2‐carboxamide [Compound 22]	–	1.7^[d]	–	–	–	Rat Hep CLint (Rat hepatocyte stability): 7.7 μL/min/10^6 cells; solubility ([3]; pH 7.4): 178 µM; HLM CLint [4]: 94 µL/min/mg
CN1C(=O)c2ccc3ncccc3c2NC1(C)C(=O)Nc1cncc(Cl)c1 (centres unmarked) [Compound 26, N‐(5‐Chloropyridin‐3‐yl)‐2,3‐dimethyl‐4‐oxo‐1,2,3,4‐tetrahydropyrido[2,3‐h]quinazoline‐2‐carboxamide]	90	–	–	–	> 40000	–
CN1C(=O)c2ccc(-c3cccnc3)cc2NC1(C)C(=O)Nc1cncc(Cl)c1 (centres unmarked) [Compound 29, N‐(5‐Chloropyridin‐3‐yl)‐2,3‐dimethyl‐4‐oxo‐7‐(pyridin‐3‐yl)‐1,2,3,4‐tetrahydroquinazoline‐2‐carboxamide]	148	–	–	–	> 40000	–
CN1C(=O)c2ccc(-c3ccn(C)n3)cc2NC1(C)C(=O)Nc1cncc(Cl)c1 (centres unmarked) [Compound 31, N‐(5‐Chloropyridin‐3‐yl)‐2,3‐dimethyl‐7‐(1‐methyl‐1H‐pyrazol‐3‐yl)‐4‐oxo‐1,2,3,4‐tetrahydroquinazoline‐2‐carboxamide]	808	–	–	–	> 40000	–
CC1(C(=O)Nc2cncc(Cl)c2)Nc2cc(Cl)ccc2C2=NCCN21 (centres unmarked) [Compound 28, 8‐Chloro‐N‐(5‐chloropyridin‐3‐yl)‐5‐methyl‐2,3,5,6‐tetrahydroimidazo[1,2‐c]quinazoline‐5‐carboxamide]	–	–	8.8	37	–	logD (eLogD shake-flask method): 2.5; solubility [3, 7]: > 200 µM
COc1cnc2c(c1)NC(C)(C(=O)Nc1cncc(Cl)c1)N(C)C2=O (centres unmarked) [Compound 35, N‐(5‐Chloropyridin‐3‐yl)‐7‐methoxy‐2,3‐dimethyl‐4‐oxo‐1,2,3,4‐tetrahydropyrido[3,2‐d]pyrimidine‐2‐carboxamide]	458	–	–	–	> 40000	–
CN1C(=O)c2ccc3cccnc3c2NC1(C)C(=O)Nc1cncc(Cl)c1 (centres unmarked) [Compound 25, N‐(5‐Chloropyridin‐3‐yl)‐2,3‐dimethyl‐4‐oxo‐1,2,3,4‐tetrahydropyrido[3,2‐h]quinazoline‐2‐carboxamide]	220	–	–	–	> 40000	–

More lines, in order of falling EC50 [1], values ahead:

EC50 [1] [nM]	eLogD (eLogD shake-flask method)	hepatocyte CLint (Rat hepatocyte stability) [µL/min/1e6 cells]	microsomal CLint [4] [µL/min/mg]	Compound	CC50 at 48 h [2] [nM]	also measured
80	–	–	–	CN1C(=O)c2ccc(Cl)cc2NC1C(=O)Nc1cccc(Cl)c1 (centres unmarked) [Compound 19, 7‐Chloro‐N‐(3‐chlorophenyl)‐3‐methyl‐4‐oxo‐1,2,3,4‐tetrahydroquinazoline‐2‐carboxamide]	> 40000	–
74	–	16	35	COc1ccc2c(c1)NC(C)(C(=O)Nc1cncc(Cl)c1)N(C)C2=O (centres unmarked) [Compound 34, N‐(5‐Chloropyridin‐3‐yl)‐7‐methoxy‐2,3‐dimethyl‐4‐oxo‐1,2,3,4‐tetrahydroquinazoline‐2‐carboxamide]	–	logD (eLogD shake-flask method): 2.7; solubility [3, 6]: 13.5 µM (≈ 4.87 µg/mL)
54	–	59	110	CC1(C(=O)Nc2cncc(Cl)c2)Nc2cc(Cl)ccc2-c2nccn21 (centres unmarked) [Compound 27, 8‐Chloro‐N‐(5‐chloropyridin‐3‐yl)‐5‐methyl‐5,6‐dihydroimidazo[1,2‐c]quinazoline‐5‐carboxamide]	> 40000	logD (eLogD shake-flask method): 2.7; solubility [3, 7]: 84 µM (≈ 31.4 µg/mL)
53	–	–	–	CCN1c2cc(Cl)ccc2C(=O)N(C)C1(C)C(=O)Nc1cccc(Cl)c1 (centres unmarked) [Compound 13, 7‐Chloro‐N‐(3‐chlorophenyl)‐1‐ethyl‐2,3‐dimethyl‐4‐oxo‐1,2,3,4‐tetrahydroquinazoline‐2‐carboxamide]	> 40000	–
47	–	–	–	CN1C(=O)c2ccc(Cl)cc2N(C)C1(C)C(=O)Nc1cncc(Cl)c1 (centres unmarked) [Compound 15, 7‐Chloro‐N‐(5‐chloropyridin‐3‐yl)‐1,2,3‐trimethyl‐4‐oxo‐1,2,3,4‐tetrahydroquinazoline‐2‐carboxamide]	> 40000	–
30	–	–	–	CN1C(=O)c2ccc(Cl)cc2N2CCCC12C(=O)Nc1cccc(Cl)c1 (centres unmarked) [Compound 18, 8‐Chloro‐N‐(3‐chlorophenyl)‐4‐methyl‐5‐oxo‐2,3,4,5‐tetrahydropyrrolo[1,2‐a]quinazoline‐3a(1H)‐carboxamide]	> 40000	–
27	3.3^[d]	33	172	CC1(C(=O)Nc2cncc(Cl)c2)Nc2cc(Cl)ccc2C(=O)N1C1CC1 (centres unmarked) [Compound 16, 7‐Chloro‐N‐(5‐chloropyridin‐3‐yl)‐3‐cyclopropyl‐2‐methyl‐4‐oxo‐1,2,3,4‐tetrahydroquinazoline‐2‐carboxamide]	> 40000	solubility [3, 5]: 7 µM (≈ 2.74 µg/mL)
23	3.2^[d]	47	267	CN1c2cc(Cl)ccc2C(=O)N(C2CC2)C1(C)C(=O)Nc1cncc(Cl)c1 (centres unmarked) [Compound 17, 7‐Chloro‐N‐(5‐chloropyridin‐3‐yl)‐3‐cyclopropyl‐1,2‐dimethyl‐4‐oxo‐1,2,3,4‐tetrahydroquinazoline‐2‐carboxamide]	> 40000	solubility [3, 5]: 28 µM (≈ 11.3 µg/mL)
